Results: patent US20230037862A1, “SYNTHETIC AGONISTS OF TLR4 RECEPTOR” (UNIVERSITÀ DEGLO STUDI DI MILANO - BICOCCA, priority 2017, published 2023)
“Also recorded” adds a separate entry of the source.

How the values were obtained:
HEK-Blue™ Null2 cells = experiment: HEK-Blue Null2 counter-assay (SEAP reporter, no TLR4/MD-2/CD14); assay type: cell-based; settings: 16-18 hours
Description: (§1) HEK-Blue™ hTLR4 (FIG. 1A) and HEK-Blue™ Null2 (FIG. 1B) cells were treated with the indicated concentrations of compounds FP11, FP111, and with LPS (100 ng/mL) and incubated for 16-18 hours. Results were normalized to stimulation with LPS alone, and are expressed as mean of percentage ±ES. of at least three independent experiments.
In order to be certain that the agonist effect of compound FP11 be due to the interaction with the TLR4 receptor, the compounds were tested on the HEK-Blue™ Null2 cell line. Said line expresses the same reporter gene of HEK-Blue™ hTLR4 cells (SEAP), but has none of the receptors involved in endotoxin recognition (TLR4, MD-2, CD14).

[1] = target: T1, purified human MD-2 receptor (Homo sapiens, UniProt Q9Y6Y9); experiment: Surface plasmon resonance binding to MD-2
T1 sequence (Q9Y6Y9 19-160): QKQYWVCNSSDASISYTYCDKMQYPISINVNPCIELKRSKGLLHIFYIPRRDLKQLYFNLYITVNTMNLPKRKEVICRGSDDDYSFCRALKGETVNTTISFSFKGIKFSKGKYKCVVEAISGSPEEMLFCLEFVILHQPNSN
Description: Surface plasmon resonance (SPR) experiments enable the study of direct interactions between the molecules to be characterized and MD-2.
The binding affinity of the compounds to recombinant MD-2 was determined using a Biacore X100 with an NTA sensor chip (Biacore, GE Healthcare, Uppsala, Sweden). Briefly, 0.5 μM MD-2 (in 50 mM TRIS, 150 mM NaCl, 0.5% Tween 20, pH 7.5) was immobilized onto the sensor chip previously activated with 1 min pulse of 10 mM NiSO4. The first flow cell was used as a reference surface to control nonspecific binding.
Both flow cells were incubated with the analyte (in PBS, 5% DMSO, 5% EtOH, pH 7.5) at a flow rate of 10 μL/min at 25° C. at increasing concentrations. The data were analyzed with Biacore Evaluation software. KD values were calculated by global fitting of the equilibrium binding responses from various concentrations of analytes using a 1:1 Langmuir binding model.

[2] = target: T1, purified human MD-2 receptor; experiment: Biotinylated LPS displacement from MD-2 hydrophobic pocket (ELISA); assay type: binding; settings: increasing concentrations, highest 160 μM
Description: The ability to displace LPS from MD-2 hydrophobic pocket was assessed by using an ELISA assay. Molecules FP11 and FP111 were added at increasing concentrations to MD-2 which had previously been incubated with biotinylated LPS.
The ability of the compounds to displace LPS from MD-2 hydrophobic pocket was determined by ELISA.
A microtiter plate was coated overnight at 4° C. with 100 μL/well of 5 μg/mL chicken polyclonal anti-MD-2 antibodies, diluted in 50 mM Na2CO3 buffer, pH 9.6, and blocked with 1% BSA in PBS. After washing, 1 μM MD-2 with biotin-labeled LPS was added and incubated for 2 h. After washing, the compounds were added at different concentrations and incubated for 1.5 h.
After washing, 0.5 μg/mL HRP-conjugated streptavidin (Sigma) in PBS was added, followed by detection at 420 nm after the addition of 100 μL of ABTS (Sigma). Chicken anti-MD-2 polyclonal antibodies were prepared against recombinant MD-2 by GenTel (Madison, Wis., USA),

[3] = target: T1, purified human MD-2 receptor; experiment: MD-2-bound fluorescent molecule (bis-ANS) displacement assay; assay type: binding; settings: MD-2 200 nM, bis-ANS 200 nM
Description: therefore, TLR4 modulators that interact with MD-2 compete with compound bis-ANS, and are able to displace it from MD-2.
Fluorescence was measured on PerkinElmer fluorimeter LS 55 (PerkinElmer, UK) as previously described^[5].
All measurements were done at 20° C. in a 5×5 mm quartz glass cuvette (Hellma Suprasil, Müllheim, Germany). MD-2 protein (200 nM) and 1,1′-Bis(anilino)-4,4′-bis (naphtalene)-8,8′ disulfonate (bis-ANS, 200 nM) were mixed and incubated until reaching stable relative fluorescence units (RFUs) emitted at 420-550 nm under excitation at 385 nm.
Compounds, at different concentrations, were then added, followed by relative fluorescence unit (RFU) measurement at 420-550 nm.

hTLR4 = target: T2, hTLR4 (Homo sapiens, UniProt O00206+Q9Y6Y9); experiment: HEK-Blue hTLR4 SEAP reporter assay (NF-κB/AP-1 activation); assay type: cell-based; settings: HEK-Blue hTLR4 cells, 16-18 hours, SEAP reporter
T2 construct: host or cells: HEK-Blue hTLR4 (HEK cells)
T2 sequence (O00206 24-839): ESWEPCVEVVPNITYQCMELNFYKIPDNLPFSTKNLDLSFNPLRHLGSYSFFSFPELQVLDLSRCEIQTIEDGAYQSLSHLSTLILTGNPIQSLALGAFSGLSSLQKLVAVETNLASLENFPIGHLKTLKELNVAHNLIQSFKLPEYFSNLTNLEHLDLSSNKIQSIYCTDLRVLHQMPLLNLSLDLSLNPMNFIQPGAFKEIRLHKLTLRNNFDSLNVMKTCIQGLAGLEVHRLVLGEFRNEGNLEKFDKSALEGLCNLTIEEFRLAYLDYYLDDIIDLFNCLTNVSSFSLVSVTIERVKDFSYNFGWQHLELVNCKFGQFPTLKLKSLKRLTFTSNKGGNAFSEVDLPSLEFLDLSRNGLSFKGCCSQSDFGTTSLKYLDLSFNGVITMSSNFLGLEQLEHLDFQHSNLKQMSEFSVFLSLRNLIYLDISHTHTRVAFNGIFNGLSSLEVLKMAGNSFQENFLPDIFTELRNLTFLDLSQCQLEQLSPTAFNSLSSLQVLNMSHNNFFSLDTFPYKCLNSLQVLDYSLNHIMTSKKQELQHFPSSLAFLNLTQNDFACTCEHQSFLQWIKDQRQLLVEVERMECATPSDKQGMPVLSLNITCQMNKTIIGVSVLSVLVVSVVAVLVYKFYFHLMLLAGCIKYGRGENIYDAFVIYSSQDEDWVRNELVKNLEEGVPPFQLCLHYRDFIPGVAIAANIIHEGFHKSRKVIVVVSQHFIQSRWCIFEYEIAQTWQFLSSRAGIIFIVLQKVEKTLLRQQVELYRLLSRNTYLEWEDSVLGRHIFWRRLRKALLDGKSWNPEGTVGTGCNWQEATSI
T2 sequence (Q9Y6Y9 17-160 limits assumed): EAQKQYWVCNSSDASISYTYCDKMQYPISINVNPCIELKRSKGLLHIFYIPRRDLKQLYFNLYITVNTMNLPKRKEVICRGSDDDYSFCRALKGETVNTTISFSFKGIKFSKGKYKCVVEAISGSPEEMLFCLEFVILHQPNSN
Description: as §1
HEK-Blue™ hTLR4 cells were treated with increasing concentrations of compound FP11 and of LPS and incubated for 16-18 hours. Results were normalized to maximum activation of the reporter produced by LPS (FIG. 2A) and to maximum activation of the reporter produced by the compound itself (FIG. 2B). Data were fitted to a sigmoidal four-parameter logistic equation in order to determine IC50 values, and expressed as mean of percentage ±ES of at least three independent experiments.
HEK-Blue™ hTLR4 cells are HEK cells transfected so as to stably express human receptors hTLR4, hMD-2, and hCD14 for endotoxin recognition. In addition, said cells have a reporter gene encoding for a secreted alkaline phosphatase (SEAP) μlaced under the control of specific transcription factors (NF-κB and AP-1) activated by the TLR4 signaling pathway. Therefore, the presence of LPS or of an agonist of TLR4 causes receptor dimerization, activation of the signaling pathway and of transcription factors NF-κB and AP-1, and finally SEAP production and secretion into the culture medium. SEAP levels can be subsequently quantitated by incubating the medium with compound p-nitrophenylphosphate (pNPP) and monitoring with a spectrophotometer the formation of p-nitrophenol chromogenic product at 405 nm.
HEK-Blue™ hTLR4 cells (InvivoGen) were cultured according to manufacturer's instruction. […]
Cells were detached using a cell scraper, counted and seeded in a 96-well multiwell plate at a density of 4×10^4 cells per well. […]
The wells' optical density was determined using a microplate reader set at 405 nm.
The results were normalized with positive control (LPS alone) and expressed as a mean of percentage ±SEM of at least three independent experiments.

[4] = target: T1, purified human MD-2 receptor; experiment: Anti-MD-2 antibody (9B4) competition, antibody-sandwich ELISA; assay type: binding; settings: up to 20 μM
Description: The direct binding of molecules FP11 and FP111 to MD-2 was analyzed by using a monoclonal antibody binding MD-2, but not LPS-bound MD-2 (Viriyakosol, S., et al., Characterization of monoclonal antibodies to human soluble MD-2 protein. Hybridoma (Larchmt), 2006. 25(6): p. 349-57).
Anti-MD-2 monoclonal antibody (9B4) specifically binds an epitope near the MD-2 hydrophobic pocket, which is available for 9B4 antibody binding only when the MD-2 hydrophobic pocket is empty. Compound FP11 is accountable for a decrease of 9B4 antibody binding to MD-2 equal to 95% at a concentration of 20 μM (FIG. 3E).
The method of antibody-sandwich ELISA for the detection of the binding of compounds to MD-2 was modified from a previous study.
A microtiter plate was coated overnight at 4° C. with 100 μL/well of 5 μg/mL of chicken polyclonal anti-MD-2 antibodies, diluted in 50 mM Na2CO3 buffer, pH 9.6, and blocked with 1% BSA in PBS. After washing, 1 μM MD-2 with tested compounds was added and incubated for 2 h.
Mouse anti-MD-2 mAb (0.1 μg/mL 9B4) and goat antimouse IgG conjugated with HRP (0.1 μg/mL) in PBS were added, followed by detection at 420 nm after the addition of 100 μL of ABTS (Sigma).
Chicken anti-MD-2 polyclonal antibodies were prepared against recombinant MD-2 by GenTel (Madison, Wis., USA), monoclonal mouse anti-MD-9B4 antibodies were from eBioscience (San Diego, Calif., USA), and secondary goat antimouse IgG conjugated with horseradish peroxidase was from Santa Cruz Biotechnology (Santa Cruz, Calif., USA).

infective agent = settings: once or thrice, myelo-suppressed or immunocompetent mice; cited from earlier work
Escherichia coli = settings: one dose one day prior to microbial inoculation; cited from earlier work
[5] = repeated dosages; cited from earlier work
[6] = system: murine macrophages and neutrophil granulocytes; settings: cited from earlier work
CD14 = settings: human peripheral blood cells; cited from earlier work
[7] = galactosamine-sensitized mice; cited from earlier work
[8] = tumour-affected patients; cited from earlier work

| TLR4 agonist activity (activation of NF-κB and AP-1) (hTLR4) | Compound | activation of transcription factors NF-κB and AP-1 in cells without TLR4, MD-2, CD14 (HEK-Blue™ Null2 cells) | direct binding to MD-2 (SPR) [1] | ability to displace biotinylated LPS from MD-2 hydrophobic pocket [2] | decrease of bis-ANS fluorescence / inhibition of bis-ANS binding to MD-2 [3] | prevention of monoclonal antibody 9B4 binding to MD-2 [4] | protective effect on prophylactic administration (infective agent) | effect on curative effects of antibiotics (Escherichia coli) | duration of transient resistance to endotoxin-related lethal risks [5] | stimulation of release of IL-6, IL-8 and TNF-α [6] | blocking of compound-induced TNF-α release by monoclonal antibodies for CD-14 (CD14) | factor of toxicity reduction compared to parent endotoxin (Salmonella abortus equi) [7] | effect on granulocyte counts and serum cytokine levels [8] | safety and tolerability of administration [8] |
| --- | --- | --- | --- | --- | --- | --- | --- | --- | --- | --- | --- | --- | --- | --- |
| completely inactive | CCCCCCCCCCCCCC(=O)NC1[C@H](OP(=O)(O)O)OC(COP(=O)(O)O)[C@@H](OC(=O)CCCCCCCCCCCCC)[C@@H]1OC(=O)CCCCCCCCCCCCC (stereo partly drawn) [FP111, 1,6-O-Phosphoryl-2-deoxy-4-O-tetradecanoyl 3-O-tetradecanoyl-2-tetradecanoylamino-α-D-glucopiranoside] | unable to activate transcription factors NF-κB and AP-1 | but not FP111, directly binds MD-2; also recorded: does not bind MD-2 | unable to displace biotinylated LPS; also recorded: but not FP111, displaces biotinylated LPS | not able to induce a decrease of compound bis-ANS fluorescence; also recorded: but not FP111, inhibits the binding of bis-ANS to MD-2 | unable to cause a decrease of 9B4 antibody binding; also recorded: but not FP111, prevents the binding of monoclonal antibody to MD-2 | – | – | – | – | – | – | – | – |
| – | CCCCCCCCCCC[C@@H](O)CC(=O)N[C@H]1[C@@H](OP(=O)(O)O)O[C@H](CO)[C@@H](OC(=O)C[C@H](O)CCCCCCCCCCC)[C@@H]1OC(=O)C[C@H](O)CCCCCCCCCCC [SDZ MRL 953] | – | – | – | – | – | highly protective effect | dramatically increased the curative effects of antibiotics administered | ≥ 1 week | potent activity in stimulating the release of inflammatory cytokines | is not blocked | at least 10^4 | increases granulocyte counts and serum levels of G-CSF and interleukin-6 (IL-6), but not of pro-inflammatory cytokines TNF-α, IL-1b, and IL-8 | safe and of excellent tolerability |
